In patent US6809181B2, “Human beta-defensin-3 (HBD-3), a highly cationic beta-defensin antimicrobial peptide” (University of Iowa Research Foundation, priority 2000, dated 2004):
≈ marks a conversion by molar mass, not a printed value.

Columns and labels:
Ureaplasma urealyticum = conditions: n=19, r143, cited from earlier work
Staphylococcus aureus = conditions: n=100, r142, cited from earlier work
Mycoplasma pneumoniae = conditions: n=11, r141, cited from earlier work
Mycoplasma hominis = conditions: n=28, r140, cited from earlier work
[1] = system: HBD-3 mRNA expression in cultured gingival keratinocytes; assay: RT-PCR of HBD-3 mRNA in cultured gingival keratinocytes; assay type: cell-based, human; conditions: 100 ng/ml IL-1β for 24 h
[2] = system: HBD-3 mRNA expression in fetal lung explants; assay: RT-PCR of HBD-3 mRNA in fetal lung explants; assay type: cell-based, human; conditions: 100 ng/ml IL-1β for 24 h

| Compound | Range (Ureaplasma urealyticum) | MIC50 (Ureaplasma urealyticum; unit assumed) | MIC90 (Ureaplasma urealyticum; unit assumed) | Range (Staphylococcus aureus) | MIC50 (Staphylococcus aureus; unit assumed) | MIC90 (Staphylococcus aureus; unit assumed) | Range (Mycoplasma pneumoniae) | MIC50 (Mycoplasma pneumoniae; unit assumed) | MIC90 (Mycoplasma pneumoniae; unit assumed) | Range (Mycoplasma hominis) | MIC50 (Mycoplasma hominis; unit assumed) | MIC90 (Mycoplasma hominis; unit assumed) | HBD-3 mRNA expression [1] | HBD-3 mRNA expression [2] |
| --- | --- | --- | --- | --- | --- | --- | --- | --- | --- | --- | --- | --- | --- | --- |
| CCC[C@@H]1C[C@@H](C(=O)N[C@@H]([C@H]2O[C@H](SC)[C@H](O)[C@@H](O)[C@H]2O)[C@@H](C)O)N(C)C1 [LINCOMYCIN, lincomycin] | 64-128 | 128 µg/mL (≈ 315 µM) | 128 µg/mL (≈ 315 µM) | 0.5-512 | 1 µg/mL (≈ 2.46 µM) | 1 µg/mL (≈ 2.46 µM) | 2-32 | 8 µg/mL (≈ 19.7 µM) | 32 µg/mL (≈ 78.7 µM) | 0.5-16 | 2 µg/mL (≈ 4.92 µM) | 4 µg/mL (≈ 9.84 µM) | – | – |
| IL-1β: IL-1β (R & D Systems), pro-inflammatory stimulus used at 100 ng/ml to induce HBD-3 mRNA expression | – | – | – | – | – | – | – | – | – | – | – | – | increased markedly | increased markedly |
